US11179347B2, “Hydrocarbon oil for a therapeutic use” (TOTAL MARKETING SERVICES, priority 2017, dated 2021)
Marks after values point to notes of the source that are not given here.

Key:
HaCaT cells [1] = test: Production of reactive oxygen species in HaCat cells incubated with oil then preservative (POE or MIT); type: cell-based
Description: Preservatives, used as an additive in pharmaceutical compositions, were evaluated. The preservatives evaluated are phenoxyethanol (POE) and methylisothiazolinone (MIT).
For this test, the HaCat cells are incubated with the oils A or B (for example for 15 minutes for the test with POE) then with the preservative POE or MIT (for example for 30 minutes with a solution of phenoxyethanol at 250 μg/mL).

HaCaT cells [2] = test: Condensation of the chromatin, HOECHST 33342 test, HaCat cells with or without benzalkonium chloride; type: cell-based; conditions: one hour with oil or CM, then 20 minutes benzalkonium chloride (BAC) 8 ppm by weight
Description: The following standards and methods were used to measure the properties hereinabove: • flash point: EN ISO 2719 • density at 15° C.: EN ISO 1185 • viscosity at 40° C.: EN ISO 3104 • aniline point: EN ISO 2977 • boiling point: ASTM D86 • biodegradability: OECD method 306 • refractive index at 20° C.: ASTM D 1218 • vapour pressure: calculated according to methods well known to those skilled in the art Tests on the Cellular Effects Preparation of the Tests: • Preparation of the microplates: 24 hours before the incubation with the oils A and B, the HaCaT cells are inoculated with a cell density of 100,000 cells/ml in 96-well microplates (Corning). The microplates are then placed in the incubator at 37° C. In a microplate, each condition was tested at least three times. Each experiment was carried out at least three times independently in order to validate the reproducibility of the results and to carry out statistical analyses. • Incubation of cells with the oils A or B: two durations of incubation were selected for the products to be tested pure: an incubation for fifteen minutes and an incubation for one hour. […]
The measurement of the condensation of the chromatin expressed as a percentage relative to the culture medium (CM) is indicated in table 3 hereinbelow.

Cn1sccc1=O [MIT, methylisothiazolinone]
Production of reactive oxygen species (% relative to the CM) (HaCaT cells [1]; with preservative methylisothiazolinone (MIT), after incubation with oil or CM): 135 % relative to the CM

benzalkonium chloride [CM + BAC]
Measurement of the condensation of the chromatin (% relative to the CM) (HaCaT cells [2]): 138*** % relative to the CM

phenoxyethanol [CM + POE]
Production of reactive oxygen species (% relative to the CM) (HaCaT cells [1]; with preservative phenoxyethanol (POE) 250 μg/mL 30 minutes, after 15 minutes with oil or CM): 132 % relative to the CM
